Measurements taken from PubChem BioAssay (NCI).
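48-hour exposure; five concentrations; linearly interpolated endpoints. At the GI50, growth is halved. Definition used: TGI = concentration required for complete inhibition of growth.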

Columns and labels:
Assay in all cases: NCI-60 cell line screen, 48 h
NCI/ADR-RES ovarian = tested on: NCI/ADR-RES ovarian
A549 NSCLC = tested on: A549 NSCLC
T-47D breast = tested on: T-47D breast
OVCAR-3 ovarian = tested on: OVCAR-3 ovarian
SK-MEL-2 melanoma = tested on: SK-MEL-2 melanoma
SNB-19 CNS = tested on: SNB-19 CNS
SF-295 CNS = tested on: SF-295 CNS
UACC-257 melanoma = tested on: UACC-257 melanoma
SR leukemia = tested on: SR leukemia
TK-10 renal = tested on: TK-10 renal

| Compound | GI50 (NCI/ADR-RES ovarian) [µM] | TGI (NCI/ADR-RES ovarian) [µM] | GI50 (A549 NSCLC) [µM] | TGI (A549 NSCLC) [µM] | GI50 (T-47D breast) [µM] | TGI (T-47D breast) [µM] | GI50 (OVCAR-3 ovarian) [µM] | TGI (OVCAR-3 ovarian) [µM] | GI50 (SK-MEL-2 melanoma) [µM] | TGI (SK-MEL-2 melanoma) [µM] | GI50 (SNB-19 CNS) [µM] | TGI (SNB-19 CNS) [µM] | GI50 (SF-295 CNS) [µM] | TGI (SF-295 CNS) [µM] | GI50 (UACC-257 melanoma) [µM] | TGI (UACC-257 melanoma) [µM] | GI50 (SR leukemia) [µM] | TGI (SR leukemia) [µM] | GI50 (TK-10 renal) [µM] | TGI (TK-10 renal) [µM] |
| --- | --- | --- | --- | --- | --- | --- | --- | --- | --- | --- | --- | --- | --- | --- | --- | --- | --- | --- | --- | --- |
| NC(=O)[C@@H](CC1CC1)[C@@H](CCC(F)(F)F)C(=O)N[C@H]1N=C(c2ccccc2)c2cccc(F)c2NC1=O | > 100 | > 100 | > 100 | > 100 | 15.3 | 56.8 | > 100 | > 100 | > 100 | > 100 | > 100 | > 100 | > 100 | > 100 | > 100 | > 100 | 12 | > 100 | > 100 | > 100 |
| Cn1c(=O)c2[nH]c(SCCN3CCOCC3)nc2n(C)c1=S | – | > 100 | – | > 100 | – | > 100 | – | > 100 | – | > 100 | – | > 100 | – | > 100 | – | > 100 | – | > 100 | – | > 100 |
| CCOc1ccc(/C(C=O)=C(\Cl)c2ccc(OC)cc2)cc1 | – | > 100 | – | > 100 | – | > 100 | – | > 100 | – | > 100 | – | > 100 | – | > 100 | – | > 100 | – | > 100 | – | > 100 |
| C=C/C(C)=C/C[C@]1(C)[C@H](C)[C@@H](OC(=O)CCC)[C@H](O)[C@@]23C(=C[C@H](OC)C[C@@H]12)[C@@H](OC(=O)CCC)O[C@H]3OC(C)=O | 0.88 | 2.46 | 1.65 | 3.62 | 0.36 | 1.71 | 0.191 | 0.4 | 0.549 | 2.09 | 1.66 | 3.58 | 0.992 | 2.48 | 0.854 | 2.56 | 0.324 | 1.49 | 0.181 | 0.411 |
| CN(C)c1ccc(/C=C2\N=C(c3ccccc3)N(c3cc(C(F)(F)F)ccc3Cl)C2=O)cc1 | > 100 | > 100 | > 100 | > 100 | > 100 | > 100 | > 78.5 | > 100 | > 100 | > 100 | > 100 | > 100 | > 100 | > 100 | > 100 | > 100 | 0.0633 | – | > 100 | > 100 |
| CCN(Cc1cc(F)ccc1F)c1ccc(CO)c(Cl)c1 | 13.6 | 39.9 | 1.54 | 21.6 | 0.116 | 1.9 | 0.238 | 0.861 | 2.72 | 19.5 | 20.2 | 80.3 | 0.283 | 13.2 | 0.0904 | 0.308 | 16.1 | 44.3 | 0.0332 | 0.199 |
| O=c1cc(-c2ccc(O)cc2)oc2cc(O[C@@H]3O[C@H](CO)[C@@H](O)[C@H](O)[C@H]3O)cc(O)c12 | – | > 100 | – | > 100 | – | > 100 | – | > 100 | – | > 100 | – | > 100 | – | > 100 | – | > 100 | – | > 100 | – | > 100 |
| COc1ccc(NC(=O)/C=C(C)/C=C/C=C(C)/C=C/C2=C(C)CCCC2(C)C)cc1 | 13.9 | 31.1 | 14.9 | 30.7 | 3.75 | 16.1 | 2.64 | 5.9 | 13.3 | 26.2 | 14.7 | 28.1 | 13.3 | 27.2 | 12.3 | 26.7 | 1.98 | 11.9 | 37.5 | 58.2 |
| Cc1cc(Cl)ccc1OCC(=O)Nc1nc(N)nc(N)n1 | – | > 100 | – | > 100 | – | > 100 | – | > 100 | – | > 100 | – | > 100 | – | > 100 | – | > 100 | – | > 100 | – | > 100 |
| CCN1CCN(Cc2ccc(NC(=O)Nc3nc4ccc(Oc5ccnc(C(=O)NC)c5)cc4s3)cc2C(F)(F)F)CC1 | 1.95 | 4.21 | 1.99 | 3.71 | 1.99 | 4.25 | 1.89 | 3.59 | 1.75 | 3.51 | 2.33 | 4.86 | 1.82 | 3.66 | 1.86 | 3.51 | 0.281 | 0.846 | 2.5 | 4.54 |
| CN1CCN(Cc2ccc(NC(=O)c3cncc(C#Cc4cnc(N)cc4C#N)c3)cc2C(F)(F)F)CC1 | 13.7 | 33.4 | 3.89 | 15.4 | 4.42 | 21.1 | 4.88 | 20.4 | 1.15 | 3.44 | 6.27 | 18.9 | 3.54 | 15.3 | 3.24 | 15.4 | 4.21 | > 100 | 4.92 | 17.5 |
| C=C1C(=O)O[C@H]2[C@H]1CC/C(COC(=O)NCc1ccc(OC)cc1)=C\CC[C@@]1(C)O[C@@H]21 | 2.69 | 21.6 | 4.28 | 19.2 | 0.757 | 2.91 | 0.595 | 1.53 | 3.04 | 10.4 | 3.01 | 11 | 11.1 | 25 | 0.766 | 2.55 | 0.656 | 3.84 | 0.359 | 1.51 |
| Cc1ccc2nc(-c3ccc(OCC(=O)N=Nc4c(O)[nH]c5ccccc45)cc3)[nH]c2c1 | > 100 | > 100 | 2.38 | 6.32 | 2.02 | 4.88 | 1.97 | 3.79 | 3.71 | 14.7 | 4.01 | 15.9 | 19.4 | 49.7 | 29.8 | > 100 | 0.499 | 3.76 | 12.8 | 30.8 |
| COc1ccc2c(c1OC)-c1c(c3ccc([N+](=O)[O-])cc3c(=O)n1CCCBr)C2=O | 26 | 98.9 | 42.4 | > 100 | 97.3 | > 100 | > 100 | > 100 | > 100 | > 100 | 69.9 | > 100 | 28.6 | > 100 | > 100 | > 100 | 4.67 | > 100 | > 100 | > 100 |
| COc1cc2ncnc(-n3ncc4cc(NC(=O)Nc5ccc(Cl)c(Cl)c5)ccc43)c2cc1OC | 2.36 | 6.23 | 2.69 | 5.75 | 2.39 | 7.17 | 1.92 | 3.7 | 2.31 | 5.01 | 2.66 | 9.58 | 1.38 | 2.94 | 3.23 | 6.79 | 2.75 | > 100 | 2.38 | 6.45 |
| Cc1cc(C)c2c(n1)sc1c(N)ncnc12 | > 25 | > 25 | > 25 | > 25 | > 25 | > 25 | > 25 | > 25 | > 25 | > 25 | > 25 | > 25 | > 25 | > 25 | > 25 | > 25 | 9.43 | > 25 | 10.1 | > 25 |
| CNNC(=N\S(=O)(=O)c1cc(C)c(Cl)cc1SCc1ccccc1)/N=C/c1ccc([N+](=O)[O-])s1 | > 100 | > 100 | 59.2 | > 100 | > 100 | > 100 | > 44.1 | > 100 | > 100 | > 100 | > 100 | > 100 | > 87.7 | > 100 | > 100 | > 100 | 41.2 | > 100 | > 74.9 | > 100 |
